Results taken from patent US20180140679A1, “MODULATION OF AXL RECEPTOR ACTIVITY IN COMBINATION WITH CYTOREDUCTIVE THERAPY” (THE BOARD OF TRUSTEES OF THE LELAND STANFORD JUNIOR …, priority 2016, published 2018).
Changes are numbered by the printed parent chain. Names and notes keep the numbering of the source.

Experiments:
4T1 luciferase cells = format: in vivo; conditions: MYD1-72 Fc 1 mg/kg daily, TKIs 12.5 mg/kg twice daily; for reduction in lung metastases compared to vehicle treated mice: ex vivo bioluminescent imaging; for size of primary tumors: three weeks, vs control
Text: In this model, cells orthotopically implanted in the mammary fat pad generate primary masses that metastasize to the lungs.
Comparison of MYD1-72 Fc with clinical Axl. TKIs There are currently no FDA approved drugs targeting Axl, though several small molecule kinase inhibitors are undergoing clinical trials. BerGenBio's BGB324 (previously Rigel's R428) is the most advanced of these compounds, and the first to be developed prospectively as an Axl inhibitor. […] Furthermore, since TKI's and biologics are fundamentally very different, as are their mechanisms of action, a direct comparison would provide valuable insights into the potential of distinct therapeutic intervention strategies. […] Cells were implanted orthotopically in the mammary fat pad, and primary tumors were allowed to establish prior to treatment. […] This dose for the TKIs was chosen as significant activity has been previously reported at equivalent concentrations.
(§1) Treatment was initiated four days post-surgery.

[1] = test system: phosphorylation of Axl, Mer, Tyro3, and downstream Akt signaling in OVCAR8 cells; assay: Western blot of TAM receptor and Akt phosphorylation in OVCAR8 cells; format: cell-based, human
Text: (§2) Cell lysates subjected to sodium dodecyl sulfate polyacrylamide gel electrophoresis followed by transfer to nitrocellulose membrane. The membranes were then probed with primary antibodies against total Axl (AF154, R&D Systems, INC., Minneapolis, Minn.), phospho-Axl (T702; #5724, CST, Danvers, Mass.), total Akt (#4691 CST, Danvers, Mass.), phosphor-Akt (#4060, CST, Danvers, Mass.), anti-MERTK (#ab52968, Abcam, Cambridge, Mass.), phospho-MERTK (#ab14921 Abcam, Cambridge, Mass.), anti-Tyro3 (#5585, CST, Danvers, Mass.), phospho-Tyro3 (#orb186274, Biorbyt LLC, Berkely, Calif.), Bcl-2 Family Antibody Sampler Kit (#9934, CST, Danvers, Mass.), anti-Chk2 (#sc-5278, Santa Cruz Biotech, INC., Santa Cruz, Calif.), anti-XRCC1 (#2735, CST, Danvers, Mass.), anti-γH2AX (Merck Millipore #05636, Darmstadt, Germany), anti-phospho-ATM (#ab81292, Abcam, Cambridge, Mass.), anti-ATM (#ab78, Abcam, Cambridge, Mass.), anti phospho-ATR (#2853, CST, Danvers, Mass.), anti-ATR (#2790, CST, Danvers, Mass.), anti-Phospho Chk1 (#12302, CST, Danvers, Mass.), anti-Phospho Chk2 (#2197, CST, Danvers, Mass.) and anti-RPA32 (#2208, CST, Danvers, Mass.) at 4° C. overnight. The blots were then washed and probed with HRP conjugated anti-goat (#sc-2020, Santa Cruz Biotech, INC., Santa Cruz, Calif.), or HRP conjugated anti-rabbit (#A16110, Thermo Fisher Scientific, Walthan, Mass.) as appropriate. The blots were developed with Bio-Rad Western C developing reagent (#170-5060 Bio-Rad, Hercules, Calif.) and visualized with Chemidoc digital imager (#1708280, Bio-Rad, Hercules, Calif.).

patients = conditions: recent phase II trial; cited from earlier work
[2] = test system: LM-P orthotopic pancreatic cancer; assay: LM-P orthotopic pancreatic cancer model; conditions: immunohistochemistry
Description: LMP cells derived from the KRAS/p53 metastatic mouse model were implanted subcutaneously into the flanks of mice and allowed to grow until they reached ˜500 mm^3 in size.
To establish orthotopic tumors, mice harboring subcutaneous tumors were sacrificed and tumors were isolated and cut into small fragments. Laparotomies were then performed and a tumor fragment was secured to the tail of the pancreas.
All procedures involving animals and their care and use were approved by the Institutional Animal Care and Usage Committee of Stanford University. For all in vivo studies, six week old, female nude (nu/nu) mice (Jackson Laboratory, Bar Harbor, Me.) were used. In all studies, animals displaying signs of morbidity were removed from the study immediately. […] Treatment was initiated four days post-inoculation for both studies. […] BGB324 (Selleckchem LLC, Houston, Tex.) and Foretinib (MedChem, Monmouth Junction, N.J.). Small molecules were administered twice daily via oral gavage. […] The orthotropic LM-P pancreatic adenocarcinoma model (a gift from Dr. Edgar Engleman at Stanford University, Stanford, Calif.) was established as previously described. Briefly, 1×10^6 cells were injected subcutaneously into the flanks of nude mice and grown for 2-3 weeks until they reached 500 mm^3. […]

skov3.ip = skov3.ip intraperitoneal ovarian cancer model; format: in vivo, mouse xenograft; conditions: MYD1-72 Fc 1 mg/kg daily, doxorubicin 2 mg/kg twice weekly, three weeks
Text: At this time, several mice were sacrificed at random to ensure engraftment of diffuse metastatic disease, a hallmark of the human condition. […] After three weeks of treatment, mice were sacrificed and tumor burden was quantified both by counting the number of visible lesions, as well as excising and weighing all diseased tissue.
as §1

[3] = test system: Axl and FLT3 phosphorylation in AML cells; assay: Western blot of Axl and FLT3 phosphorylation in AML cells; format: cell-based, human
Text: as §2

mouse Gas6 = molecular target: T1, mouse Gas6 (mouse, UniProt Q61592 115-674, limits assumed); assay: KinExA equilibrium titration in solution, apparent Kd of the dimeric Fc fusion
T1 construct: Recombinant in KinExA (detected through a 6xHIS tag); also called mGas6
T1 sequence (looked up): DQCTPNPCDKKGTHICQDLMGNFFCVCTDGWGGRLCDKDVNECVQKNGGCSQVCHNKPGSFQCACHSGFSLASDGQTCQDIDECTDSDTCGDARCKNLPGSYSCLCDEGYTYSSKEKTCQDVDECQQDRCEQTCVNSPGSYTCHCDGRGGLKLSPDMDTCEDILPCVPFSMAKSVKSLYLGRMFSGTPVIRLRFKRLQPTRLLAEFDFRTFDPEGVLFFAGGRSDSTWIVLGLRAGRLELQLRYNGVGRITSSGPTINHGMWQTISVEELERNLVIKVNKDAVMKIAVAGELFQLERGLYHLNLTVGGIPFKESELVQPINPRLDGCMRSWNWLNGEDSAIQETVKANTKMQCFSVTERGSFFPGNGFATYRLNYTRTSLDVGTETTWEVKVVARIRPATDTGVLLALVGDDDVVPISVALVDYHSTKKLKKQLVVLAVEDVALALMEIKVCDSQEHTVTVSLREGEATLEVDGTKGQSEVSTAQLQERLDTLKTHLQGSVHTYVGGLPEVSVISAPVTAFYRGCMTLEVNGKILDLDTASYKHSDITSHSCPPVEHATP

Molecule: Nc1nc(Nc2ccc3c(c2)CC[C@@H](N2CCCC2)CC3)nn1-c1cc2c(nn1)-c1ccccc1CCC2 [BGB324, reference compound]
- reduction in lung metastases compared to vehicle treated mice (4T1 luciferase cells): 10%
- size of primary tumors (4T1 luciferase cells): showed little effects
- pAxl and pAkt levels [1]: short-term inhibition of pAxl but increased pAxl levels at later time points

Molecule: COc1cc2c(Oc3ccc(NC(=O)C4(C(=O)Nc5ccc(F)cc5)CC4)cc3F)ccnc2cc1OCCCN1CCOCC1 [Foretinib]
- clinical efficacy (patients): failed to demonstrate efficacy
- patients with treatment-related adverse events (patients): 91%
- reduction in lung metastases compared to vehicle treated mice (4T1 luciferase cells): 55%
- size of primary tumors (4T1 luciferase cells): significantly reduced the size of primary tumors
- pAxl and pAkt levels [1]: indiscriminately inhibited all TAM receptors
- pMer and pTyro3 levels [1]: indiscriminately inhibited all TAM receptors

Molecule: Nc1ccn([C@@H]2O[C@H](CO)[C@@H](O)C2(F)F)c(=O)n1 [Gemcitabine, reference compound]
- Ki67 proliferation in primary tumor [2]: small, albeit significant decrease in proliferation

Molecule: COc1cccc2c1C(=O)c1c(O)c3c(c(O)c1C2=O)C[C@@](O)(C(=O)CO)C[C@@H]3O[C@H]1C[C@H](N)[C@H](O)[C@H](C)O1 [doxorubicin, reference compound]
- decrease in tumor burden (by weight) vs controls (skov3.ip): 91%

Molecule: wildtype Axl Fc: wild-type Axl decoy receptor as Fc fusion
- Axl and FLT3 phosphorylation [3]: inhibited Axl and FLT3 phosphorylation

B1: MYD1-Fc (Fc fusion)
chain: APRGTQAEESPFVSNPGNITGARGLTGTLRCQLQVQGEPPEVHWLRDGQILELADSTQTQVPLGEDEQGDWIVASQLRITSLQLSDTGQYQCLVFLGHQTFVSQPGYVRLEGLPYFLEEPEDRTVAANTPFNLSCQAQGPPEPVDLLWLQDAVPLATAPGHGPQRSLHVPGLNKTSSFSCEAHNAKGVTTSRTATITVLPQQPRNLHLVSRQPTELEVAWTPGLSGIYPLTHCTLQAVLSNDGMGIQAGEPDPPEEPLTSQASVPPHQLRLGSLHPHTPYHIRVACTSSQGPSSWTHWLPVETPEGVPLGPPENISATRNGSQAFVHWQEPRAPLQGTLLGYRLAYQGQDTPEVLMDIGLRQEVTLELQGDGSVSNLTVCVAAYTAAGDGPWSLPVPLEAWRPGQAQPVHQLVKEPSTPAFS
notes: Dimeric Fc fusion made in HEK293; MYD1 mutations deduced as MYD1-72 minus A72V; not shown: Fc domain
- Kd (mouse Gas6): 1.1 pM

B2: MYD1-72 Fc (Fc fusion)
chain: B1 chain with A54V
notes: Dimeric Fc fusion made in HEK293; also called MYD-72 Fc; second generation Axl decoy receptor; not shown: Fc domain
- Kd (mouse Gas6): 0.14 pM
